Results on one molecule are retold here after patent publication US8445500B2, “Pesticidal compositions” (Dow AgroSciences, LLC., priority 2007, dated 2013).

The test system of the experiment is Yellow Fever Mosquito Aedes aegypti. In words: Insecticidal assay 4, yellow fever mosquito larvae, 96-well plate. It is filed as in vivo. The following applies: A. aegypti first instar larvae in water; 1.5 microliters of 4 micrograms per microliter in DMSO per well; assessed after 72 hours at 22° C. The source says: 4. Insecticidal Assay for Yellow Fever Mosquito Aedes aegypti:
Objective: To evaluate the insecticidal activity of compounds against A. aegypti larvae through contact and ingestion.
Test unit preparation: Empty, 96-well microtiter plates are loaded onto a robotic dispensing system prior to application.
Formulation and application: Compounds are formulated in dimethyl sulfoxide at 4-micrograms per microliter. A robotic system dispenses 1.5 microliters of each formulated experimental solution into each well of an empty, 96-well microtiter plate. Each treatment is replicated 3 times.
Infesting: Subsequent to application, recently hatched, mosquito larvae are suspended in water containing 0.4% mosquito diet (1:3 mix of brewers yeast to liver powder). A robotic system dispenses aliquots of this aqueous solution containing 5-8 first instar mosquitoes into each well of the treated plates.
Holding and assessment: After infestation, the plates are covered with a matching clear plastic lid. Infested plates are stacked and held in an incubator at 22° C. for 72 hours. At assessment, cells are examined by means of a dissecting microscope for insecticidal effects.

Turning to `CN(Nc1nc(C(F)(F)F)nc(C(F)(F)F)c1C#N)c1ccc(C#N)cn1` [Compound 30], the insecticidal activity entry was “significant insecticidal activity”.
